# Reference: patent publication US9539223B2, “Methods for treating bacterial infections” (Neoculi Pty Ltd., priority 2013, dated 2017)
# Where two headings read alike, the source gives them in different places.
# Legend:
# S. pneumoniae strain D39 [1] = experiment: MBC time kill studies (relative MBC at time points); assay type: cell-based, Streptococcus pneumoniae
# Excerpt: MBC kill kinetics assays involved the preparation of three 96-well microtitre trays.
# S. pneumoniae strain D39 [2] = experiment: Macro-broth dilution time kill studies; assay type: cell-based, Streptococcus pneumoniae
# Method: Bacterial suspensions and working antibiotic stocks were prepared as described above. [For preparing macro-broth dilutions, 20 ml tubes were filled each with 9 mls of 4% LHB:CAMHB. 9 mls of a working antimicrobial stock was diluted 1:2 when added to one of the tubes, and then serial diluted down from a high to low concentration of antimicrobial. 1 ml of S. pneumoniae bacterial suspension was added to the appropriate tubes, including the positive control. […] At every 2-3 hrs during the first 12 hrs of growth and then at 24 hrs and 48 hrs, 50 μL of each bacterial suspension was spread plated onto HBA and incubated at 37° C. with 5% CO2 for 16-24 hrs.]
# Cultures were incubated at 37° C. in 5% CO2 with gentle manual tilting every 10 mins for the first 12 hrs. Viable counts from 50 μL aliquots of each concentration were read following incubation at 37° C. in 5% CO2 for 24 hrs. The pH of each sample was measured at specific time points using pH indicator strips. Confluent growth was defined when more than 1000 colonies were counted per plate. A bactericidal effect was defined as a 3-log 10-unit reduction (99.9%) of the original cell suspension determined at 24 hrs for each concentration.
# [3] = test system: E. coli ATCC 25922 spheroplasts; experiment: Activity against spheroplasts (colony forming units over 24 hours); assay type: cell-based, Escherichia coli
# Method: E. coli ATCC 25922 was grown overnight on agar at 37° C. Two colonies from the overnight incubation were used to inoculate ˜20 ml of cation adjusted mueller hinton broth. Inoculated broth was incubated for 18 hours at 37° C. […] Formation of spheroplasts was checked using a phase contrast microscope.
# Fifty microliters of DMSO only was added to the control test tube. Spheroplasts were incubated for 24 hours with 20 μl samples taken at 0, 2, 4, 6, 8 and 24 hours. Twenty microliter samples were serially diluted 1:10 and 10 ul samples of appropriate dilutions were spotted in triplicate onto brain heart infusion agar. Brain heart infusion agar was incubated at 37° C. for 48 hours and colonies were counted at 24 and 48 hours to determine the number of colony forming units.
# MRSA isolates = experiment: MBC test (CLSI), MRSA isolates; assay type: cell-based, Staphylococcus aureus
# Method: (§1) There was an obvious reduction in the number of bacteria with increasing concentration, but growth was present compared with no growth for S. aureus. […] Each MBC test was performed in duplicate.
# VRE isolates = experiment: MBC test (CLSI), VRE isolates; assay type: cell-based, Enterococcus spp.; design: key: M = many bacteria growing on the plate (too many to count)
# Method: as §1
# E. faecalis USA01 = experiment: Kill kinetics assay, E. faecalis USA01; assay type: cell-based, Enterococcus faecalis
# Method: S. aureus KC01 and E. faecalis USA01, not determined to be MRSA or VRE, respectively, were grown overnight on Columbia SBA at 37° C. A few colonies of bacteria were then suspended in CAMHB (cation-adjusted Mueller Hinton broth) and adjusted to OD600 of 0.08 to 0.10. The bacterial suspension was diluted 1:10. […] The tubes were incubated at 37° C., with constant shaking. In order to determine the number of viable bacteria present at various time points, a 100 μL aliquot was removed from each tube and diluted. Then, 100 μL of each dilution were spread onto colony count agar, in duplicate, and incubated for 48 h at 37° C. After 24 h the numbers of colonies present on each plate were counted and therefore the number of viable bacteria present in the original suspension enumerated. Plates were re-checked after 48 hours.
# [4] = cited from earlier work
structure (smiles),measurement,setting,value
"N=C(N/N=C/c1ccc(Cl)cc1)N/N=C/c1ccc(Cl)cc1 [NCL812, 1,2-bis[(E)-(4-chlorophenyl)methylideneamino]guanidine]",consistent bactericidal effect elicited after,"S. pneumoniae strain D39 [1]; from initial exposure, relative MBC over 48 hr",6 h
same,decrease in MBC,S. pneumoniae strain D39 [1]; within 5 hrs,~3 fold
same,growth,S. pneumoniae strain D39 [2]; 2 μg/ml NCL812,Consistent confluent growth
same,appeared to be inactivated at,"S. pneumoniae strain D39 [2]; 4 μg/ml and 8 μg/ml, post-exposure",11 h
same,time to eliminating bacterial growth,S. pneumoniae strain D39 [2]; between 16 μg/ml and 64 μg/ml NCL812,≤ 8 h
same,concentration with significant decrease in colony forming units over time,[3],≥ 32 µg/mL
same,MBC test: growth on Sheep Blood Agar,"MRSA isolates; MRSA 1, 4 μg/ml",0
same,MBC test: growth on Sheep Blood Agar,"MRSA isolates; MRSA 1, 8 μg/ml",0
same,MBC test: growth on Sheep Blood Agar,"MRSA isolates; MRSA 1, 16 μg/ml",0
same,MBC test: growth on Sheep Blood Agar,"MRSA isolates; MRSA 1, 32 μg/ml",0
same,MBC test: growth on Sheep Blood Agar,"MRSA isolates; MRSA 3, 4 μg/ml",0
same,MBC test: growth on Sheep Blood Agar,"MRSA isolates; MRSA 3, 16 μg/ml",0
same,MBC test: growth on Sheep Blood Agar,"MRSA isolates; MRSA 3, 32 μg/ml",0
same,MBC test: growth on Sheep Blood Agar,"MRSA isolates; MRSA 4, 4 μg/ml",0
same,MBC test: growth on Sheep Blood Agar,"MRSA isolates; MRSA 4, 8 μg/ml",0
same,MBC test: growth on Sheep Blood Agar,"MRSA isolates; MRSA 4, 16 μg/ml",0
same,MBC test: growth on Sheep Blood Agar,"MRSA isolates; MRSA 4, 32 μg/ml",0
same,MBC test: growth on Sheep Blood Agar,"MRSA isolates; MRSA 5, 4 μg/ml",0
same,MBC test: growth on Sheep Blood Agar,"MRSA isolates; MRSA 5, 8 μg/ml",0
same,MBC test: growth on Sheep Blood Agar,"MRSA isolates; MRSA 5, 16 μg/ml",0
same,MBC test: growth on Sheep Blood Agar,"MRSA isolates; MRSA 5, 32 μg/ml",0
same,MBC test: growth on Sheep Blood Agar,"MRSA isolates; MRSA 6, 4 μg/ml",0
same,MBC test: growth on Sheep Blood Agar,"MRSA isolates; MRSA 6, 8 μg/ml",0
same,MBC test: growth on Sheep Blood Agar,"MRSA isolates; MRSA 6, 16 μg/ml",0
same,MBC test: growth on Sheep Blood Agar,"MRSA isolates; MRSA 6, 32 μg/ml",0
same,MBC test: growth on Sheep Blood Agar,"MRSA isolates; MRSA 7, 4 μg/ml",0
same,MBC test: growth on Sheep Blood Agar,"MRSA isolates; MRSA 7, 16 μg/ml",0
same,MBC test: growth on Sheep Blood Agar,"MRSA isolates; MRSA 7, 32 μg/ml",0
same,MBC test: growth on Sheep Blood Agar,"MRSA isolates; MRSA 8, 8 μg/ml",0
same,MBC test: growth on Sheep Blood Agar,"MRSA isolates; MRSA 8, 16 μg/ml",0
same,MBC test: growth on Sheep Blood Agar,"MRSA isolates; MRSA 8, 32 μg/ml",0
same,MBC test: growth on Sheep Blood Agar,"MRSA isolates; MRSA 9, 4 μg/ml",0
same,MBC test: growth on Sheep Blood Agar,"MRSA isolates; MRSA 9, 8 μg/ml",0
same,MBC test: growth on Sheep Blood Agar,"MRSA isolates; MRSA 9, 16 μg/ml",0
same,MBC test: growth on Sheep Blood Agar,"MRSA isolates; MRSA 9, 32 μg/ml",0
same,MBC test: growth on Sheep Blood Agar,"MRSA isolates; MRSA 10, 4 μg/ml",0
same,MBC test: growth on Sheep Blood Agar,"MRSA isolates; MRSA 10, 8 μg/ml",0
same,MBC test: growth on Sheep Blood Agar,"MRSA isolates; MRSA 10, 16 μg/ml",0
same,MBC test: growth on Sheep Blood Agar,"MRSA isolates; MRSA 10, 32 μg/ml",0
same,MBC test: growth on Sheep Blood Agar,"MRSA isolates; MRSA 11, 8 μg/ml",0
same,MBC test: growth on Sheep Blood Agar,"MRSA isolates; MRSA 11, 16 μg/ml",0
same,MBC test: growth on Sheep Blood Agar,"MRSA isolates; MRSA 11, 32 μg/ml",0
same,MBC test: growth on Sheep Blood Agar,"MRSA isolates; MRSA 12, 4 μg/ml",0
same,MBC test: growth on Sheep Blood Agar,"MRSA isolates; MRSA 12, 16 μg/ml",0
same,MBC test: growth on Sheep Blood Agar,"MRSA isolates; MRSA 12, 32 μg/ml",0
same,MBC test: growth on Sheep Blood Agar,"MRSA isolates; MRSA 13, 4 μg/ml",0
same,MBC test: growth on Sheep Blood Agar,"MRSA isolates; MRSA 13, 8 μg/ml",0
same,MBC test: growth on Sheep Blood Agar,"MRSA isolates; MRSA 13, 16 μg/ml",0
same,MBC test: growth on Sheep Blood Agar,"MRSA isolates; MRSA 13, 32 μg/ml",0
same,MBC test: growth on Sheep Blood Agar,"MRSA isolates; MRSA 14, 4 μg/ml",0
same,MBC test: growth on Sheep Blood Agar,"MRSA isolates; MRSA 14, 8 μg/ml",0
same,MBC test: growth on Sheep Blood Agar,"MRSA isolates; MRSA 14, 16 μg/ml",0
same,MBC test: growth on Sheep Blood Agar,"MRSA isolates; MRSA 14, 32 μg/ml",0
same,MBC test: growth on Sheep Blood Agar,"MRSA isolates; MRSA 516, 4 μg/ml",0
same,MBC test: growth on Sheep Blood Agar,"MRSA isolates; MRSA 516, 8 μg/ml",0
same,MBC test: growth on Sheep Blood Agar,"MRSA isolates; MRSA 516, 16 μg/ml",0
same,MBC test: growth on Sheep Blood Agar,"MRSA isolates; MRSA 516, 32 μg/ml",0
same,MBC test: growth on Sheep Blood Agar,"MRSA isolates; MRSA 570, 4 μg/ml",0
same,MBC test: growth on Sheep Blood Agar,"MRSA isolates; MRSA 570, 8 μg/ml",0
same,MBC test: growth on Sheep Blood Agar,"MRSA isolates; MRSA 570, 16 μg/ml",0
same,MBC test: growth on Sheep Blood Agar,"MRSA isolates; MRSA 570, 32 μg/ml",0
same,MBC test: growth on Sheep Blood Agar,"MRSA isolates; MRSA 580, 4 μg/ml",0
same,MBC test: growth on Sheep Blood Agar,"MRSA isolates; MRSA 580, 8 μg/ml",0
same,MBC test: growth on Sheep Blood Agar,"MRSA isolates; MRSA 580, 16 μg/ml",0
same,MBC test: growth on Sheep Blood Agar,"MRSA isolates; MRSA 580, 32 μg/ml",0
same,MBC test: growth on Sheep Blood Agar,"MRSA isolates; MRSA 606, 4 μg/ml",0
same,MBC test: growth on Sheep Blood Agar,"MRSA isolates; MRSA 606, 8 μg/ml",0
same,MBC test: growth on Sheep Blood Agar,"MRSA isolates; MRSA 606, 16 μg/ml",0
same,MBC test: growth on Sheep Blood Agar,"MRSA isolates; MRSA 606, 32 μg/ml",0
same,MBC test: growth on Sheep Blood Agar,"MRSA isolates; MRSA 610, 4 μg/ml",0
same,MBC test: growth on Sheep Blood Agar,"MRSA isolates; MRSA 610, 16 μg/ml",0
same,MBC test: growth on Sheep Blood Agar,"MRSA isolates; MRSA 610, 32 μg/ml",0
same,MBC test: bacteria growing after 24 hours per ml of sample,"VRE isolates; VRE 12c, 64 μg/ml",M
same,MBC test: bacteria growing after 24 hours per ml of sample,"VRE isolates; VRE 12c, […]",M
same,MBC test: bacteria growing after 24 hours per ml of sample,"VRE isolates; VRE 14t, […]",M
same,MBC test: bacteria growing after 24 hours per ml of sample,"VRE isolates; VRE 16c(dc), 64 μg/ml",M
same,MBC test: bacteria growing after 24 hours per ml of sample,"VRE isolates; VRE 16c(dc), […]",M
same,MBC test: bacteria growing after 24 hours per ml of sample,"VRE isolates; VRE 16c, 64 μg/ml",M
same,MBC test: bacteria growing after 24 hours per ml of sample,"VRE isolates; VRE 16c, […]",M
same,MBC test: bacteria growing after 24 hours per ml of sample,"VRE isolates; VRE 19t, […]",M
same,MBC test: bacteria growing after 24 hours per ml of sample,"VRE isolates; VRE 23c, 64 μg/ml",M
same,MBC test: bacteria growing after 24 hours per ml of sample,"VRE isolates; VRE 23c, […]",M
same,MBC test: bacteria growing after 24 hours per ml of sample,"VRE isolates; VRE 25c, 64 μg/ml",M
same,MBC test: bacteria growing after 24 hours per ml of sample,"VRE isolates; VRE 25c, […]",M
same,MBC test: bacteria growing after 24 hours per ml of sample,"VRE isolates; VRE 26c(dc), 64 μg/ml",M
same,MBC test: bacteria growing after 24 hours per ml of sample,"VRE isolates; VRE 26c(dc), […]",M
same,rise in bacterial numbers,"E. faecalis USA01; 32 and 64 μg/mL, until the 6 h time point",~1 log10
same,reduction in CFU/mL compared to the growth control,E. faecalis USA01; 2 h,2 log10
same,reduction in CFU/mL compared to the original bacterial numbers,E. faecalis USA01; 2 h,greater than 1 log10
same,bacterial numbers compared to the growth control,"E. faecalis USA01; 24 h, all concentrations",increased to almost the same level as the growth control
same,solubility,[4]; PBS,precipitation
same,solubility,"[4]; water containing 4% DMSO, following initial dilution in 100% DMSO",complete solubility
